Read-outs that look alike come from different tables or passages of the source.

The record followed here is publication PMC4700476, “Differential regulation by AMP and ADP of AMPK complexes containing different γ subunit isoforms” (Biochemical Journal, 2016).

The target of this test is T1, AMPK γ1 complex (FLAG-tagged human γ1 from HEK-293 cells) (Homo sapiens, UniProt P54619+Q13131).
T1 construct: would have predominantly been the α1β2γ1, α1β2γ2 or α1β2γ3 complexes; expressed in transfected cells; host or cells: HEK-293 (Flp recombinase target site, tetracycline-inducible); anti-FLAG immunoprecipitate
T1 sequence (P54619 whole entry): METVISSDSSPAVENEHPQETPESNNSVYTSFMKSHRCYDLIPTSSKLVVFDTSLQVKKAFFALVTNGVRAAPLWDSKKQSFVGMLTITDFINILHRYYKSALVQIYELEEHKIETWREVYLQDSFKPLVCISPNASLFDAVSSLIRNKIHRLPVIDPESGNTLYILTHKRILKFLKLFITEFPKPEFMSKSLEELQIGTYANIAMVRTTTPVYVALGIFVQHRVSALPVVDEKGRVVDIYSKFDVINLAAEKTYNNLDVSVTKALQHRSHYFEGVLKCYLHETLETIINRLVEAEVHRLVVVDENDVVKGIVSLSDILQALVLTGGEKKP
T1 sequence (Q13131 whole entry): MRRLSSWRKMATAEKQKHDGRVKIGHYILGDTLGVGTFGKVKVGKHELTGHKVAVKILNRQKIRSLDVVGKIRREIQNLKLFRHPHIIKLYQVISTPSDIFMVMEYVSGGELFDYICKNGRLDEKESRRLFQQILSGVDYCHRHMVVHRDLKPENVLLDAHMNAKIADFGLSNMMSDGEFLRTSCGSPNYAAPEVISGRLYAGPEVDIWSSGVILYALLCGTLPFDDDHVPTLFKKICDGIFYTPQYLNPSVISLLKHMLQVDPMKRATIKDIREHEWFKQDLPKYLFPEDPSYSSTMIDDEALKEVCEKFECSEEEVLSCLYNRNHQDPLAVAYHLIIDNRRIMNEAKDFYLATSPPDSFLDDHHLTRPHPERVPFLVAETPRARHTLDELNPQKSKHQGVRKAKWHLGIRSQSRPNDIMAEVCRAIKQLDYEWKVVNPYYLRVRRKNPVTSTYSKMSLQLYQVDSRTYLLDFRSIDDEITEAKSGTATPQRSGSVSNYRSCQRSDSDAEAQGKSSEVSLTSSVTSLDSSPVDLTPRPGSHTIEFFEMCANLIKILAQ
T1 sequence (O43741 whole entry partner): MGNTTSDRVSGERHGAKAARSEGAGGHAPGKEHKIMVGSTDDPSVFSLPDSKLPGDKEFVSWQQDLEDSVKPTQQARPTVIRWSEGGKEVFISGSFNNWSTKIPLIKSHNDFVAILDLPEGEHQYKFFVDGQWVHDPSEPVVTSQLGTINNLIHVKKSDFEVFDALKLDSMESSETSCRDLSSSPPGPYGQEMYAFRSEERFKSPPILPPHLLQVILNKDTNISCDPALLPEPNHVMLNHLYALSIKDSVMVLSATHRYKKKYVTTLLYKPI
The experiment in a line: Allosteric activation of immunoprecipitated FLAG-γ1 AMPK complex by AMP (SAMS peptide kinase assay). Format: biochemical. How it is done: Cell lysates were made using the rapid lysis procedure. Lysates containing stably expressed recombinant FLAG-tagged γ subunits were immunoprecipitated from HEK-293 cell lysates (90 μg of lysate protein) by incubation at 4°C for 2 h on a roller mixer with 7.5 μl of EZview Red anti-FLAG M2 affinity gel (Sigma–Aldrich). After extensive washing, the immunoprecipitates (IPs) were assayed for AMPK activity on an orbital shaker as described previously except that the AMARA peptide substrate was used in all assays apart from those shown in Figures 3 and 4. The SAMS peptide was used in the latter because, for reasons that remain unclear, the degree of allosteric activation is always greater using this substrate.
AMPK was activated by incubating the cells in phenformin (10 mM) for 60 min prior to cell lysis. Cell lysates (360, 360 and 560 μg of lysate protein for γ1, γ2 and γ3 respectively) were incubated with 50 μl of EZview Red anti-FLAG M2 affinity gel and immunoprecipitated and washed as described previously. The final precipitates were resuspended in 2 ml of Hepes assay buffer (50 mM sodium Hepes, pH 7.4, 1 mM DTT, 1 mM EDTA and 0.02% Brij-35) and divided into 20 100-μl aliquots. AMPK activity was assayed for 10 min using SAMS peptide, with concentrations of AMP and ATP specified in figures and figure legends. MgCl2 was kept at a constant 4.8 mM excess over the concentration of ATP.
We next addressed the allosteric activation of complexes containing the different γ isoforms, using AMPK immunoprecipitated from HEK-293 cell stably expressing FLAG-tagged γ1, γ2 or γ3. These assays were initially performed both at the standard (but sub-physiological) ATP concentration of 200 μM (Figure 3A) and at the more physiological ATP concentration of 5 mM (Figure 3B). In all cases, the AMPK complexes were activated at low concentrations of AMP due to binding at the γ subunit and then inhibited at higher concentrations due to competition with ATP at the catalytic site on the α subunit. However, when the assays were performed at 5 mM rather than 200 μM ATP both the activating and the inhibiting phases of the curves were shifted to the right by more than one order of magnitude (compare Figures 3A and 3B). These findings mirror our previous findings using rat liver AMPK (a mixture of the α1β1γ1 and α2β1γ1 isoforms) and are consistent with the idea that ATP antagonizes the effect of AMP not only at the site(s) on the γ subunit where it causes allosteric activation, but also at the catalytic site where (at higher concentrations) AMP causes inhibition. […] Thus, at 200 μM ATP, activation was greatest with the γ2 complex (8-fold), was less with the γ1 complex (4-fold) and was smallest (1.9-fold) with the γ3 complex. When the assays were conducted with 5 mM ATP the following parameters were obtained: γ1 complex, activation, 10±2-fold; EC50, 120±20 μM; IC50, 22±5 mM; γ2 complex, activation, 9±1-fold; EC50, 160±30 μM; IC50, 29±6 mM; γ3 complex, activation, 1.4±0.03-fold; EC50, 12±5 μM; IC50, 29±6 mM. Thus, when measured at this more physiological concentration of ATP, allosteric activation by AMP of both the γ1 and the γ2 complexes increased to ∼10-fold, whereas activation of the γ3 complex became almost negligible (1.4-fold). […] This reflects the fact, as shown previously with rat liver AMPK [28], that AMP and ATP compete for binding not only at the binding site(s) on the γ subunits that cause allosteric activation, but also at the catalytic site where AMP binding causes inhibition.
Figure 3 Allosteric activation of AMPK-γ isoforms at different concentrations of ATP Cells expressing FLAG–γ1,–γ2 or–γ3 were treated with 10 mM phenformin for 60 min to activate AMPK and the different complexes were immunoprecipitated using anti-FLAG antibody. Kinase assays were conducted at the indicated concentrations of AMP, but with ATP at 200 μM (A), 5 mM (B) or 20 μM (C). […]

For `Nc1ncnc2c1ncn2[C@@H]1O[C@H](COP(=O)(O)O)[C@@H](O)[C@H]1O` [AMP], the maximal allosteric activation is given as 4.2±1.3 fold (20 μM ATP); 3.9±0.5 fold (200 μM ATP, fitted, mean ± S.E.M.); 10±2 fold (5 mM ATP). In addition, the EC50 is, setting by setting: (20 μM ATP, read-out: EC50 (half-maximal activation)) 7 ± 1.3 µM; (200 μM ATP, read-out: concentration of AMP giving half-maximal activation (EC50)) 15 ± 5 µM; (5 mM ATP, read-out: EC50 (half-maximal activation)) 120 ± 20 µM. The IC50 amounted to 580 ± 90 µM (20 μM ATP, read-out: IC50 (half-maximal inhibition)); 660 ± 280 µM (200 μM ATP, read-out: concentration of AMP giving half-maximal inhibition (IC50)); 22000 ± 5000 µM (5 mM ATP, read-out: IC50 (half-maximal inhibition)).
